Bridge positions count the residues as written; N and C are the ends. Ends that are not written are not given here.
What was measured:
[1] = cited from earlier work
[2] = test system: AMY1R (CTR:RAMP1); test: Native PAGE mobility shift assay, single-point, AMY1R; type: biochemical, human; conditions: 10 μM agonist, no mGs, detergent-solubilized (LMNG/CHS), in-gel mCitrine fluorescence, qualitative, three replicates
[3] = test system: AMY2R (CTR:RAMP2); test: Native PAGE mobility shift assay, single-point, AMY2R; type: biochemical, human; conditions: 10 μM agonist, no mGs, detergent-solubilized (LMNG/CHS), in-gel mCitrine fluorescence, qualitative, three replicates
[4] = target: AMY1R (HiBiT-CTR:mCitrine-RAMP1) (Homo sapiens, UniProt O60894+P30988); test: CTR:RAMP cell surface proximity BRET assay, AMY1R; type: cell-based; conditions: 300 nM agonist, HEK293 cells, room temperature, 30 min, pH 7.4
[5] = test system: AMY2R (HiBiT-CTR:mCitrine-RAMP2); test: CTR:RAMP cell surface proximity BRET assay, AMY2R; type: cell-based, human; conditions: 300 nM agonist, HEK293 cells, room temperature, 30 min, pH 7.4
[6] = target: T1, AMY3R (HiBiT-CTR:mCitrine-RAMP3) (Homo sapiens, UniProt O60896+P30988); test: CTR:RAMP cell surface proximity BRET assay, AMY3R; type: cell-based; conditions: 300 nM agonist, HEK293 cells, room temperature, 30 min, pH 7.4
T1 sequence (P30988 25-474): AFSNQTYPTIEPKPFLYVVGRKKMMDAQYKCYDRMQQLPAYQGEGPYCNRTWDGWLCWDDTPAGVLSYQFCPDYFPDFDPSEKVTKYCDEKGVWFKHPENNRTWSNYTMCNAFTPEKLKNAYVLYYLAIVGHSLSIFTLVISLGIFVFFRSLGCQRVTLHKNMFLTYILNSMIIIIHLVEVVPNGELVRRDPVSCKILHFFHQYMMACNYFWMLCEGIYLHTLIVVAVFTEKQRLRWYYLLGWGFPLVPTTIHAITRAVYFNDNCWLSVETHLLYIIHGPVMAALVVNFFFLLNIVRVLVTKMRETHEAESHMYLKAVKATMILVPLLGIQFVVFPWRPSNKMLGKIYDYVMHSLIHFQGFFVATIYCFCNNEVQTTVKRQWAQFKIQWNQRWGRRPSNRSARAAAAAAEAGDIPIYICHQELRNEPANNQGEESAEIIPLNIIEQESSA

[7] = target: CTR:R2 (AMY2R) (Homo sapiens, UniProt O60895+P30988); conditions: 50 μM SUMO-miniGs, agonist titration
[8] = target: T2, CTR:R3 (AMY3R) (Homo sapiens, UniProt O60896+P30988); conditions: 50 μM SUMO-miniGs, agonist titration
T2 sequence (P30988 25-474): T1 sequence (P30988 25-474)
T2 sequence (O60896 25-148): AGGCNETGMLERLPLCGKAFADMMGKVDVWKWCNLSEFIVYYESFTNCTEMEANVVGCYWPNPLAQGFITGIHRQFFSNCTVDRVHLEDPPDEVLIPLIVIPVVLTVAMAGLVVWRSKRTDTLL

[9] = target: CTR:R1 (AMY1R) (Homo sapiens, UniProt O60894+P30988); test: Native PAGE agonist titration with excess SUMO-miniGs, AMY1R; conditions: 50 μM SUMO-miniGs
[10] = target: CTR + RAMP1 (Homo sapiens, UniProt O60894+P30988); test: cAMP signaling CAMYEL biosensor BRET assay in COS-7 cells, CTR + RAMP1; conditions: 30 min, 37°C, vs CTR alone
[11] = target: T3, CTR + RAMP3 (Homo sapiens, UniProt O60896+P30988); test: cAMP signaling CAMYEL biosensor BRET assay in COS-7 cells, CTR + RAMP3; conditions: 30 min, 37°C
T3 sequence (P30988 25-474): T1 sequence (P30988 25-474)
T3 sequence (O60896 24-148): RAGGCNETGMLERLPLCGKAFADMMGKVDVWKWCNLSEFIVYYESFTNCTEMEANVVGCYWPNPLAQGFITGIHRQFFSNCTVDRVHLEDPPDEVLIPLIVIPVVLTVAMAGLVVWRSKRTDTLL

[12] = target: AMY1R on cells (HiBiT-CTR.25–474 : mCitrine-RAMP1.24–148) (human) (UniProt O60894); test: FRET or BRET

CTR:R1 (AMY1R), sequence (O60894 24-148, one chain of several): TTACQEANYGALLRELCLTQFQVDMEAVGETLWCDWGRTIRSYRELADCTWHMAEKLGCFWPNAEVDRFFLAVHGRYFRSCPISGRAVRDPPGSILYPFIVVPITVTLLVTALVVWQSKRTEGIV
AMY1R (HiBiT-CTR:mCitrine-RAMP1), sequence (O60894 24-148, one chain of several): as above
human αCGRP, sequence (P06881 83-119): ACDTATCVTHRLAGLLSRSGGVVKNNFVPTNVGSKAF
CTR + RAMP1, sequence (O60894 27-148, one chain of several): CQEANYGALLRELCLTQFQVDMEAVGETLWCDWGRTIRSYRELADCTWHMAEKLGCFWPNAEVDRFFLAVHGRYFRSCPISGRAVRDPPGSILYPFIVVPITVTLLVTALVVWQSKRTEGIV
CTR:R2 (AMY2R), sequence (O60895 55-175, one chain of several): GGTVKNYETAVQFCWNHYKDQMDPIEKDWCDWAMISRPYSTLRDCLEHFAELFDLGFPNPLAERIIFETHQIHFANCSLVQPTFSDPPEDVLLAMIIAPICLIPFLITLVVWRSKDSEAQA

Row | Substance | Change of subunit distribution (free RAMP1 / AMY1R heterodimer) [2] | Change of subunit distribution (AMY2R heterodimer / oligomers) [3] | Change in CTR:RAMP proximity BRET signal, real-time [4] | Change in CTR:RAMP proximity BRET signal, real-time [5] | Change in CTR:RAMP proximity BRET signal, real-time [6] | Subunit dissociation (increase in free RAMP3) [8] | Effect on CTR-RAMP1 association/dissociation, free RAMP1 [9] | further results
1 | cagrilintide (KCNTATCATQRLAEFLRHSSNNFGPILPPTNVGSNTP; chains of the INN, looked up) |  |  |  |  |  |  |  | Weight loss in clinical trials ([1]; ref [9]-[12]): promote substantial weight loss
2 | human calcitonin [hCT] | did not appreciably change the free RAMP1 | induced formation of a higher order oligomeric species of unknown molecular composition | similarly decreased it | a brief initial decrease followed by a gradual increase | decreased the BRET signal | promoted AMY3R dissociation | little or no effect on subunit association/dissociation | Quaternary complex formation (in words) [7]: little if any quaternary complex; Quaternary complex formation (in words) [8]: little if any quaternary complex; Potency change on RAMP1 co-expression, cAMP [10]: did not change hCT potency; Steepness of cAMP concentration-response curve [11]: steeper than the other curves; Potency change on RAMP3 co-expression, cAMP ([11]; vs CTR alone): decreased hCT potency
3 | human αCGRP (from UniProt P06881 83-119) (peptide) |  |  |  |  |  |  |  | EC50 [12]: 30 nM
4 | pramlintide (KCNTATCATQRLANFLVHSSNNFGPILPPTNVGSNTY-NH2; disulfide 2-7; UniProt P10997 34-70, looked up, variant A25P S28P S29P) |  |  |  |  |  |  |  | Insulin adjunct therapy, glycemic control ([1]; ref [8]): improved glycemic control
5 | rat amylin [rAmylin] | reduced free RAMP1 and increased the amount of the AMY1R heterodimer | appeared to increase the amount of AMY2R heterodimer |  |  | no effect |  | decreased free RAMP1 with increasing agonist | 
6 | salmon calcitonin [sCT] | did not appreciably change the free RAMP1 | induced formation of a higher order oligomeric species of unknown molecular composition | similarly decreased it | a brief initial decrease followed by a gradual increase | decreased the BRET signal | promoted AMY3R dissociation | little or no effect on subunit association/dissociation | 

— paper PMC11482831 (bioRxiv, 2024)
